Measurements published in patent publication EP4818168A1, “FUSED RING COMPOUND, PHARMACEUTICAL COMPOSITION THEREOF AND USE THEREOF” (priority 2023, dated 2025).
pIC50: −log10 of the molar value. Read-outs that look alike come from different tables or passages of the source.

What was measured:
[1] = biological target: T1, AURKA (Homo sapiens, UniProt O14965); type: cell-based
T1 construct: endogenous in cells; host or cells: Jurkat cells
T1 sequence (O14965 1-403): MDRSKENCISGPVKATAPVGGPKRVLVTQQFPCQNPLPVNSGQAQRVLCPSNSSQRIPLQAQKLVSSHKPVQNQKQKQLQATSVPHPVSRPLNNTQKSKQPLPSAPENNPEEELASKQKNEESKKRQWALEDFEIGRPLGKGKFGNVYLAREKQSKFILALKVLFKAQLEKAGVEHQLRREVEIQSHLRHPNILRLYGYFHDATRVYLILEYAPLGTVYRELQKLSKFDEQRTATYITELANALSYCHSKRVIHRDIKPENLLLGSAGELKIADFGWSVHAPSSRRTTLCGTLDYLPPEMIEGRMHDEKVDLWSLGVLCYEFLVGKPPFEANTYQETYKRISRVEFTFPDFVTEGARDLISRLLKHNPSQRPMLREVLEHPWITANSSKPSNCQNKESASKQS
Summary of the method: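 Jurkat cells seeded at 1×10^6 cells/500 µL and treated with compound; lysates run on SDS-PAGE, blotted to nitrocellulose and probed overnight at 4°C for AURKA. Chemiluminescent or fluorescent band intensity fitted to a curve to give DC50 for protein degradation.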

[2] = test system: H82 cells; assay: cells; type: cell-based; settings: Homo sapiens
Summary of the method: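 H82 cells in RPMI1640 + 10% FBS exposed to compound (0.1% DMSO final) for 6 days at 37 °C, 5% CO2. Viability read by CellTiter-Glo ATP luminescence, normalised to DMSO and medium controls; IC50 from nonlinear regression of the dose–survival curve.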

[3] = 100 nM compound, Jurkat cells, 24 h, Table 2
[4] = 1 µM compound, Jurkat cells, 24 h, Table 2
[5] = NCI-H82, H82 cells, 4000 cells/well, CellTiter-Glo, read-out: IC50 in H82 Cells
[6] = NCI-H82, read-out: IC50 in H82 Cells

## O=C1CCN(c2cccc(N3CCN(C4CN(c5cccc(Nc6ncc7c(n6)-c6ccc(Cl)cc6C(c6c(F)cccc6F)=NC7)c5)C4)CC3)c2)C(=O)N1 [Compound A164]
[1]; [3]
  Percentage of AURKA Degradation Induced by 100 nM Compound in Jurkat Cells: ++ (30% < Degradation ≤ 70%)
[1]; [4]
  Percentage of AURKA Degradation Induced by 1 µM Compound in Jurkat Cells: +++ (Degradation > 70%)
[2]; [5]
  pIC50: > 6.00

## O=C1CCN(c2ccc(N3CCC(N4CCN(c5ccc(Nc6ncc7c(n6)-c6ccc(Cl)cc6C(c6c(F)cccc6F)=NC7)cc5)C(=O)C4)C3)nc2)C(=O)N1 (stereo not drawn) [Compound A166]
[1]; [3]
  Percentage of AURKA Degradation Induced by 100 nM Compound in Jurkat Cells: +++ (Degradation > 70%)
[1]; [4]
  Percentage of AURKA Degradation Induced by 1 µM Compound in Jurkat Cells: ++ (30% < Degradation ≤ 70%)
[2]; [5]
  pIC50: > 6.00

## O=C1CCN(c2ccc(N3CCC4(CC3)CC(NC(=O)c3ccc(Nc5ncc6c(n5)-c5ccc(OC7CC7)cc5C(c5c(F)cccc5F)=NC6)cc3)C4)nc2)C(=O)N1 [Compound A168]
[1]; [3]
  Percentage of AURKA Degradation Induced by 100 nM Compound in Jurkat Cells: +++ (Degradation > 70%)
[1]; [4]
  Percentage of AURKA Degradation Induced by 1 µM Compound in Jurkat Cells: +++ (Degradation > 70%)
[2]; [5]
  pIC50: > 6.00

## O=C1CCN(c2cccc(N3CCC(N4CC(c5cccc(Nc6ncc7c(n6)-c6ccc(Cl)cc6C(c6c(F)cccc6F)=NC7)c5)C4)C3)c2)C(=O)N1 (stereo not drawn) [Compound A170]
[1]; [3]
  Percentage of AURKA Degradation Induced by 100 nM Compound in Jurkat Cells: +++ (Degradation > 70%)
[1]; [4]
  Percentage of AURKA Degradation Induced by 1 µM Compound in Jurkat Cells: +++ (Degradation > 70%)
[2]; [5]
  pIC50: > 6.00

## CN(C)Cc1ccc2c(c1)C(c1c(F)cccc1F)=NCc1cnc(Nc3ccc(C(=O)NC4CC5(CCN(c6ccc(N7CCC(=O)NC7=O)cn6)CC5)C4)cc3)nc1-2 [Compound A172]
[1]; [3]
  Percentage of AURKA Degradation Induced by 100 nM Compound in Jurkat Cells: ++ (30% < Degradation ≤ 70%)
[1]; [4]
  Percentage of AURKA Degradation Induced by 1 µM Compound in Jurkat Cells: +++ (Degradation > 70%)
[2]; [5]
  pIC50: > 6.00

## O=C1CCN(c2cnc(N3CCN(CCN4Cc5ccc(Nc6ncc7c(n6)-c6ccc(Cl)cc6C(c6c(F)cccc6F)=NC7)cc5C4)CC3)s2)C(=O)N1 [Compound A174]
[1]; [3]
  Percentage of AURKA Degradation Induced by 100 nM Compound in Jurkat Cells: ++ (30% < Degradation ≤ 70%)
[1]; [4]
  Percentage of AURKA Degradation Induced by 1 µM Compound in Jurkat Cells: ++ (30% < Degradation ≤ 70%)
[2]; [5]
  pIC50: > 6.00

## Cc1c(N2CC(CN3CCc4ccc(Nc5ncc6c(n5)-c5ccc(Cl)cc5C(c5c(F)cccc5F)=NC6)cc4C3)C2)cccc1N1CCC(=O)NC1=O [Compound A176]
[1]; [3]
  Percentage of AURKA Degradation Induced by 100 nM Compound in Jurkat Cells: +++ (Degradation > 70%)
[1]; [4]
  Percentage of AURKA Degradation Induced by 1 µM Compound in Jurkat Cells: +++ (Degradation > 70%)
[2]; [5]
  pIC50: > 6.00

## Cc1c(N2CCC(CN3CCc4ccc(Nc5ncc6c(n5)-c5ccc(Cl)cc5C(c5c(F)cccc5F)=NC6)cc4C3)CC2)cccc1N1CCC(=O)NC1=O [Compound A178]
[1]; [3]
  Percentage of AURKA Degradation Induced by 100 nM Compound in Jurkat Cells: +++ (Degradation > 70%)
[1]; [4]
  Percentage of AURKA Degradation Induced by 1 µM Compound in Jurkat Cells: +++ (Degradation > 70%)
[2]; [5]
  pIC50: > 6.00

## Cc1c(N2CCC(N3Cc4ccc(Nc5ncc6c(n5)-c5ccc(Cl)cc5C(c5c(F)cccc5F)=NC6)cc4C3)CC2)cccc1N1CCC(=O)NC1=O [Compound A179]
[1]; [3]
  Percentage of AURKA Degradation Induced by 100 nM Compound in Jurkat Cells: ++ (30% < Degradation ≤ 70%)
[1]; [4]
  Percentage of AURKA Degradation Induced by 1 µM Compound in Jurkat Cells: ++ (30% < Degradation ≤ 70%)
[2]; [5]
  pIC50: > 6.00

## Cc1c(N2CCC(CN3Cc4ccc(Nc5ncc6c(n5)-c5ccc(Cl)cc5C(c5c(F)cccc5F)=NC6)cc4C3)CC2)cccc1N1CCC(=O)NC1=O [Compound A181]
[1]; [3]
  Percentage of AURKA Degradation Induced by 100 nM Compound in Jurkat Cells: +++ (Degradation > 70%)
[1]; [4]
  Percentage of AURKA Degradation Induced by 1 µM Compound in Jurkat Cells: +++ (Degradation > 70%)
[2]; [5]
  pIC50: > 6.00

## O=C1CCN(c2cncc(N3CCN(C4CN(c5cccc(Nc6ncc7c(n6)-c6ccc(Cl)cc6C(c6c(F)cccc6F)=NC7)c5)C4)CC3)c2)C(=O)N1 [Compound A183]
[1]; [3]
  Percentage of AURKA Degradation Induced by 100 nM Compound in Jurkat Cells: +++ (Degradation > 70%)
[1]; [4]
  Percentage of AURKA Degradation Induced by 1 µM Compound in Jurkat Cells: +++ (Degradation > 70%)
[2]; [5]
  pIC50: > 6.00

## O=C1CCN(c2ccc(N3CCN(C4CCN(c5ccc(Nc6ncc7c(n6)-c6ccc(Cl)cc6C(c6c(F)cccc6F)=NC7)cc5)CC4)CC3)nc2)C(=O)N1 [Compound A185]
[1]
  Percentage of AURKA Degradation Induced by 100 nM Compound in Jurkat Cells: +++ (key: +: Degradation ≤ 30%; ++: 30% < Degradation ≤ 70%; +++: Degradation > 70%)
  Percentage of AURKA Degradation Induced by 1 µM Compound in Jurkat Cells: +++ (key: +: Degradation ≤ 30%; ++: 30% < Degradation ≤ 70%; +++: Degradation > 70%)
[2]; [6]
  pIC50: > 6.00

## O=C1CCN(c2ccc(N3CCC4(CC3)CC(NC(=O)C35CC(Nc6ncc7c(n6)-c6ccc(Cl)cc6C(c6c(F)cccc6F)=NC7)(C3)C5)C4)nc2)C(=O)N1 [Compound A195]
[1]; [3]
  Percentage of AURKA Degradation Induced by 100 nM Compound in Jurkat Cells: +++ (Degradation > 70%)
[1]; [4]
  Percentage of AURKA Degradation Induced by 1 µM Compound in Jurkat Cells: +++ (Degradation > 70%)
[2]; [5]
  pIC50: > 6.00

## O=C1CCN(c2cncc(N3CCN(CC4CN(c5cccc(Nc6ncc7c(n6)-c6ccc(Cl)cc6C(c6c(F)cccc6F)=NC7)c5)C4)CC3)c2)C(=O)N1 [Compound A197]
[1]; [3]
  Percentage of AURKA Degradation Induced by 100 nM Compound in Jurkat Cells: +++ (Degradation > 70%)
[1]; [4]
  Percentage of AURKA Degradation Induced by 1 µM Compound in Jurkat Cells: +++ (Degradation > 70%)
[2]; [5]
  pIC50: > 6.00

## O=C1CCN(c2ccc(N3CCN(CC4CN(c5ccc(Nc6ncc7c(n6)-c6ccc(Cl)cc6C(c6c(F)cccc6F)=NC7)cc5)C4)CC3)nc2)C(=O)N1 [Compound A199]
[1]; [3]
  Percentage of AURKA Degradation Induced by 100 nM Compound in Jurkat Cells: +++ (Degradation > 70%)
[1]; [4]
  Percentage of AURKA Degradation Induced by 1 µM Compound in Jurkat Cells: +++ (Degradation > 70%)
[2]; [5]
  pIC50: > 6.00

## O=C1CCN(c2cnc(N3CC(CN4CCN(c5ccc(Nc6ncc7c(n6)-c6ccc(Cl)cc6C(c6c(F)cccc6F)=NC7)cc5)C(=O)C4)C3)s2)C(=O)N1 [Compound A203]
[1]; [3]
  Percentage of AURKA Degradation Induced by 100 nM Compound in Jurkat Cells: ++ (30% < Degradation ≤ 70%)
[1]; [4]
  Percentage of AURKA Degradation Induced by 1 µM Compound in Jurkat Cells: +++ (Degradation > 70%)
[2]; [5]
  pIC50: > 6.00

## O=C1CCN(c2cncc(N3CC(CN4CCc5ccc(Nc6ncc7c(n6)-c6ccc(Cl)cc6C(c6c(F)cccc6F)=NC7)cc5C4)C3)c2)C(=O)N1 [Compound A209]
[1]; [3]
  Percentage of AURKA Degradation Induced by 100 nM Compound in Jurkat Cells: +++ (Degradation > 70%)
[1]; [4]
  Percentage of AURKA Degradation Induced by 1 µM Compound in Jurkat Cells: +++ (Degradation > 70%)
[2]; [6]
  pIC50: > 6.00

## N#Cc1cc(Nc2ncc3c(n2)-c2ccc(Cl)cc2C(c2c(F)cccc2F)=NC3)ccc1N1CCN(C2CCN(c3ccc(N4CCC(=O)NC4=O)cn3)CC2)CC1 [Compound A211]
[1]; [3]
  Percentage of AURKA Degradation Induced by 100 nM Compound in Jurkat Cells: ++ (30% < Degradation ≤ 70%)
[1]; [4]
  Percentage of AURKA Degradation Induced by 1 µM Compound in Jurkat Cells: +++ (Degradation > 70%)
[2]; [5]
  pIC50: > 6.00

## O=C1CCN(c2ccc(N3CCC(N4CCN(c5ccc(Nc6ncc7c(n6)-c6ccc(Cl)cc6C(c6c(F)cccc6F)=NC7)cn5)CC4)CC3)nc2)C(=O)N1 [Compound A213]
[1]; [3]
  Percentage of AURKA Degradation Induced by 100 nM Compound in Jurkat Cells: +++ (Degradation > 70%)
[1]; [4]
  Percentage of AURKA Degradation Induced by 1 µM Compound in Jurkat Cells: +++ (Degradation > 70%)
[2]; [5]
  pIC50: > 6.00

## O=C1CCN(c2cncc(N3CC(CN4CCOc5ccc(Nc6ncc7c(n6)-c6ccc(Cl)cc6C(c6c(F)cccc6F)=NC7)cc5C4)C3)c2)C(=O)N1 [Compound A214]
[1]; [3]
  Percentage of AURKA Degradation Induced by 100 nM Compound in Jurkat Cells: +++ (Degradation > 70%)
[1]; [4]
  Percentage of AURKA Degradation Induced by 1 µM Compound in Jurkat Cells: + (Degradation ≤ 30%)
[2]; [5]
  pIC50: > 6.00

## O=C1CCN(c2ccc(N3CCC(N4CCN(C56CC(Nc7ncc8c(n7)-c7ccc(Cl)cc7C(c7c(F)cccc7F)=NC8)(C5)C6)CC4)CC3)nc2)C(=O)N1 [Compound A216]
[1]; [3]
  Percentage of AURKA Degradation Induced by 100 nM Compound in Jurkat Cells: ++ (30% < Degradation ≤ 70%)
[1]; [4]
  Percentage of AURKA Degradation Induced by 1 µM Compound in Jurkat Cells: ++ (30% < Degradation ≤ 70%)
[2]; [5]
  pIC50: > 6.00
